A short description of assay [1]: NIH-3T3 fibroblast cytotoxicity, dose response, cytotoxicity control, cell-based, fluorescence, Alamar Blue, secondary assay (AID 2327).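 Also: NIH-3T3 mouse fibroblasts cultured with fluconazole at 8 µg/mL.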 It is filed as functional.
Another assay concerns the target T1, Aminopeptidase N (Plasmodium falciparum FcB1/Columbia, UniProt O96935).
T1 sequence (O96935 whole entry): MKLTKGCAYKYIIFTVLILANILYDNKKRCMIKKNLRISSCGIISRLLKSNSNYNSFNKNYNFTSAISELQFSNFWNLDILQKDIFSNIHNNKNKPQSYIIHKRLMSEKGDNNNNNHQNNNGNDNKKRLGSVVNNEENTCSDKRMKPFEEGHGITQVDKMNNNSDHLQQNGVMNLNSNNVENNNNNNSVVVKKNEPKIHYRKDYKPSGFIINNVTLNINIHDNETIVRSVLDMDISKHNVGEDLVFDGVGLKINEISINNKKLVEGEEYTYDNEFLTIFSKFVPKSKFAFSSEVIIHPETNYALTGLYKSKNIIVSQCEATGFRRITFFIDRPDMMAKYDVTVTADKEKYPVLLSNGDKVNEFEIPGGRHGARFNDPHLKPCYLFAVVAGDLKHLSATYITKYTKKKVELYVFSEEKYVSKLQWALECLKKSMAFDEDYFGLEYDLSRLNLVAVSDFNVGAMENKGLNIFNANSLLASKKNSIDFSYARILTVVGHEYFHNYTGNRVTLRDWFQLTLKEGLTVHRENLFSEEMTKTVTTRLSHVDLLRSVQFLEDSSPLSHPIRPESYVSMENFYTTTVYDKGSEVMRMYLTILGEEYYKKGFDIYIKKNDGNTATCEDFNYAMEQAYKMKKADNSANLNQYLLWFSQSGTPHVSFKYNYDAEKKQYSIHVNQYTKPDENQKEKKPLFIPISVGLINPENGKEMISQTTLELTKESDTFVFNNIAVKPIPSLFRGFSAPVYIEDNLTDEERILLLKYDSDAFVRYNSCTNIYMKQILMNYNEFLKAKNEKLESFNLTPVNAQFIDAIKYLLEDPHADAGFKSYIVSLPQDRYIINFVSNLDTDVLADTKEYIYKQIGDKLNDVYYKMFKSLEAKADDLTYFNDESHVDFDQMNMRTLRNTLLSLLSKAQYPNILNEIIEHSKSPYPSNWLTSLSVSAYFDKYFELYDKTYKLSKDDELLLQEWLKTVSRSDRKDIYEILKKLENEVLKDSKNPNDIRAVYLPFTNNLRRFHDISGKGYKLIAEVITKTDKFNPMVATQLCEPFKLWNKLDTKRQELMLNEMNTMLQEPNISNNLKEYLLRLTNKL
Briefly: malaria alanyl aminopeptidase activity blockers – biochemical, fluorogenic H-Leu-NHMec substrate, 1536-well (AID 1445). Further details: species or system Plasmodium falciparum 3D7, 3D7.

Assay [2] deals with Streptococcus sp. 'group A'. Briefly: Streptococcus pyogenes SK(-)GAS viability under kanamycin – luminescence, BacTiterGlo, confirmation, counter-screen for streptokinase expression inhibitor project, dose response (AID 1900). It is filed as functional, organism-based.
A further assay concerns the target T2, Streptokinase A (Streptococcus pyogenes serotype M1, UniProt P10520).
T2 sequence (P10520 whole entry): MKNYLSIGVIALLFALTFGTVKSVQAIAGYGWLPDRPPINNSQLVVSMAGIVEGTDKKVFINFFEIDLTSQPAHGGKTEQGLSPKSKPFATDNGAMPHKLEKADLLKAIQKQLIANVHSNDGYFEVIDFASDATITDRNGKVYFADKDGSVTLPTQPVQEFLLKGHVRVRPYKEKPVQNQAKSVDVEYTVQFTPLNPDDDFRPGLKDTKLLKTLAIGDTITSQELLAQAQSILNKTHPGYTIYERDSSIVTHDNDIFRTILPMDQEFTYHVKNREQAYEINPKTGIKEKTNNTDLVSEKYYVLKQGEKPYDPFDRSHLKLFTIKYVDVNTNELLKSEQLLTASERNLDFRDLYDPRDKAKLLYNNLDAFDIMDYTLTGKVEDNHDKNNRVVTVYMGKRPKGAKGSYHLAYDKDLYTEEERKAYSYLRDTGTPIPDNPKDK
The assay can be described thus: viability-normalized secreted streptokinase activity reduction – plasminogen activation absorbance, OD405, dose response (AID 1914).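 Also: secreted streptokinase activity via plasminogen activation per viability signal from cell pellet.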 It is filed as functional, Streptococcus pyogenes M1 GAS.

Assay [3] is described as follows: fluconazole-exposed Candida albicans growth modulators – fluorescence, retest, confirmation (AID 2467). It counts as functional, cell-based.
Another assay relates to Streptococcus. Briefly: GAS UMAA2166 growth inhibition – luminescence, BacTiterGlo, counter-screen for streptokinase expression inhibitor project, dose response (AID 1915).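 Also: potency for reduction of bacterial viability or growth.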 It is filed as functional, organism-based.
The target in assay [4] is Eukaryotic translation initiation factor 4E (Mus musculus, UniProt P63073). Briefly: blockers of eIF4G binding by eIF4E – biochemical, TR-FRET, dose response (AID 855).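 Also: potency for disrupting eIF4E binding to eIF4GI seen as loss of FRET.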 It counts as functional.
Eukaryotic translation initiation factor 4E, sequence (P63073 whole entry): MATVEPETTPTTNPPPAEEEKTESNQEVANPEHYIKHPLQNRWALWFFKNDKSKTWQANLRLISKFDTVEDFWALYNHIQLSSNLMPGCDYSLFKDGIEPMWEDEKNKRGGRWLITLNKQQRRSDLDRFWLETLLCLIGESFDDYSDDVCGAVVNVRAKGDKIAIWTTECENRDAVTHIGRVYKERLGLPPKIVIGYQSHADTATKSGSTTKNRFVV
The target in assay [5] is T3, High affinity choline transporter 1 (Homo sapiens, UniProt Q9GZV3).
T3 sequence (Q9GZV3 whole entry): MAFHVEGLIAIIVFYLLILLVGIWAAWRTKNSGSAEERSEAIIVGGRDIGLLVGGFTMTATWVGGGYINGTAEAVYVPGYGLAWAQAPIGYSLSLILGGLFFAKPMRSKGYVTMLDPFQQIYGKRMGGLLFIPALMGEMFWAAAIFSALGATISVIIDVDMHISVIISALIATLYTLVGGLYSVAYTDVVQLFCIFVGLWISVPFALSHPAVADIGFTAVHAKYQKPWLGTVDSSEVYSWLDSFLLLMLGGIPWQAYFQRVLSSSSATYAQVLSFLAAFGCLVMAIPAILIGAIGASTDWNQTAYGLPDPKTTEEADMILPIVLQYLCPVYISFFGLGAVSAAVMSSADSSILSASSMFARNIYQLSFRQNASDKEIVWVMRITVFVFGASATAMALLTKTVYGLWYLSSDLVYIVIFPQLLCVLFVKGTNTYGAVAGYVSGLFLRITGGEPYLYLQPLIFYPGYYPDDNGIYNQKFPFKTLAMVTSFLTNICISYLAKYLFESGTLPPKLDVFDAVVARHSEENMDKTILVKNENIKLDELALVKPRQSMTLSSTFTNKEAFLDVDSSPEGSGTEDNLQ
Briefly: human choline transporter blockers, potency – cell-based, 5-point CRC, membrane potential dye, dose response (AID 504840). It counts as functional.

For assay [6], the target named is T4, Long-chain-fatty-acid--AMP ligase FadD28 (Mycobacterium tuberculosis, UniProt P9WQ59).
T4 sequence (P9WQ59 whole entry): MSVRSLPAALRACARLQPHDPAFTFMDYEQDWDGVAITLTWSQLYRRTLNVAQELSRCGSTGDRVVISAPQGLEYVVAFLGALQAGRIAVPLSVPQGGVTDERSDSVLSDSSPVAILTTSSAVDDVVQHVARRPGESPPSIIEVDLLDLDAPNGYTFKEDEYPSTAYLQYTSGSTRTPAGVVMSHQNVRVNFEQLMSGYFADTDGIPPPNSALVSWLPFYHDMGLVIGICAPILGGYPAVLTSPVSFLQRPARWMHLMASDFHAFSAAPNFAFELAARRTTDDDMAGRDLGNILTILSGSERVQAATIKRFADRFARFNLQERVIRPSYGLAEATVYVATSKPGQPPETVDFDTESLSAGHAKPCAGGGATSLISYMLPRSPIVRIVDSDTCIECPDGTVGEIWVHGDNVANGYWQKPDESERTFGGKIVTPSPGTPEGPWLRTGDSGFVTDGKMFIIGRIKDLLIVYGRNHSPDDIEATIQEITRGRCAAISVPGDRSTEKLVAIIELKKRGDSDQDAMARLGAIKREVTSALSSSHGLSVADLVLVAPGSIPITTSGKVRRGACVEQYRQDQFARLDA
The assay can be described thus: Fluorescence polarization aasay to screen for inhibitors that compete for the binding of FadD28 to a bisubstrate Measured in Biochemical System Using Plate Reader - 2147-01_Inhibitor_Dose_CherryPick_Activity. It is filed as functional, Mycobacterium tuberculosis H37Rv.

Another assay concerns the target Albumin (Bos taurus, UniProt P02769). Briefly: Counterscreen for inhibitors of T-cell receptor (TCR)-CD3 interaction: Fluorescence-based biochemical high throughput dose response assay to identify inhibitors of T-cell receptor (TCR)-CD3 interaction using a TAMRA-labeled BSA probe. It is filed as functional.
Assay [7] in a line: luciferase reporter signal suppression in cells – H4 neuroglioma cells, luminescence, dose response (AID 1990). It is filed as functional, cell-based.
A short description of assay [8]: Luminescence Cell-Based Dose Response HTS to Identify Inhibitors of 5'UTR Stem-Loop Driven Prion Protein mRNA Translation in H4 Neuroglioblastoma Cells. [Related pubchem assays: 1827 (Project Summary), 1813 (Primary HTS)]. It counts as functional.
Assay [9] can be described thus: alpha-synuclein stem-loop luciferase translation blockers – H4 neuroglioma cells, luminescence, confirmation (AID 1988). It is filed as functional, cell-based.
Assay [10] can be described thus: Trypanosoma cruzi growth suppression in host cells – NIH3T3 host cells, beta-gal luminescence, confirmation (AID 2044).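 Also: intracellular parasites grown in NIH/3T3 mouse fibroblasts as host cells; luminescent beta-galactosidase reporter signal from transgenic T. cruzi replicating inside host cells; inhibitors lower the luminescence signal.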 It is filed as functional, cell-based.
Assay [11] can be described thus: NIH3T3 cell viability loss – ATP luminescence, mouse fibroblasts, counter-screen, dose response (AID 2010).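 Also: cells exposed to compound for about 90 hours before reading.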 It is filed as functional, cell-based.
Assay [12] concerns the target T5, Ubiquitin-conjugating enzyme E2 N (Homo sapiens, UniProt P61088).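 Also: Dose-response confirmation in a TR-FRET assay detecting UBC13-driven polyubiquitin chain formation, inhibition measured.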
T5 sequence (P61088 whole entry): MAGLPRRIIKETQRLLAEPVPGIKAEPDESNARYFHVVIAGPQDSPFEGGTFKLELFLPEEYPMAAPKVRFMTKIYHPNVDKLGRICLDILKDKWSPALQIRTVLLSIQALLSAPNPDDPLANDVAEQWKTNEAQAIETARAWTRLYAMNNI
It counts as functional.

Assay [13] deals with T6, Heat shock factor protein 1 (Mus musculus, UniProt P38532).
T6 sequence (P38532 whole entry): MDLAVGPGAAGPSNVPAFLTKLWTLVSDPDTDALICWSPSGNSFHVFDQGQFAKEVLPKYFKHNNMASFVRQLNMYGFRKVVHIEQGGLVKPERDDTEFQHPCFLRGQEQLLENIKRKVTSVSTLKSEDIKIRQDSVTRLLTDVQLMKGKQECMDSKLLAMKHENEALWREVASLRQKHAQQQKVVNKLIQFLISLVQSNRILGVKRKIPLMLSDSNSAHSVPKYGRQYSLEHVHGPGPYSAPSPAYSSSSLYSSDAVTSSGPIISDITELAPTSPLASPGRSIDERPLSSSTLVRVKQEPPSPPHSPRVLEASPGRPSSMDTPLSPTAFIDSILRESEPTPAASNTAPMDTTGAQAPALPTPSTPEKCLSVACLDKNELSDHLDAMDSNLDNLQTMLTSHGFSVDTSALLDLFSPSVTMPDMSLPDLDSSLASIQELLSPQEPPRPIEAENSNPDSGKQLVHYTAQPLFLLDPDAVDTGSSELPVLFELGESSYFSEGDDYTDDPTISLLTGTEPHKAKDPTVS
The assay can be described thus: enhancement of HSF1-driven luciferase signal – cell-based, NIH3T3, luminescence, dose retest, confirmation (AID 435004).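 Also: stress induced by proteasome inhibitor MG132 added 30 min after compound; luciferase reporter driven by HSF1 response element in NIH3T3 cells; actives raise luminescence as potentiators of the MG132 stress response.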 It is filed as functional.

Another assay deals with INS1. The assay can be described thus: INS-1E survival protection against cytokine death – cell-based, luminescence, retest, dose response (AID 449756).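 Also: cell death triggered by IL-1 beta plus TNF-alpha plus IFN-gamma mixture; protective hits raise ATP signal compared with cytokine alone wells.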 It counts as functional. Conditions: Rattus norvegicus.
The target in the next assay is Paired box protein Pax-8 (Homo sapiens, UniProt Q06710). The assay can be described thus: PAX8 transcriptional activity inhibition in RMG-I – RMG-I cells, luciferase, cherry-pick, dose response (AID 687027).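 Also: luciferase reporter driven by Pax8 target thyroperoxidase promoter measured by SteadyGlo luminescence.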 It counts as functional, cell-based.
Paired box protein Pax-8, sequence (Q06710 whole entry): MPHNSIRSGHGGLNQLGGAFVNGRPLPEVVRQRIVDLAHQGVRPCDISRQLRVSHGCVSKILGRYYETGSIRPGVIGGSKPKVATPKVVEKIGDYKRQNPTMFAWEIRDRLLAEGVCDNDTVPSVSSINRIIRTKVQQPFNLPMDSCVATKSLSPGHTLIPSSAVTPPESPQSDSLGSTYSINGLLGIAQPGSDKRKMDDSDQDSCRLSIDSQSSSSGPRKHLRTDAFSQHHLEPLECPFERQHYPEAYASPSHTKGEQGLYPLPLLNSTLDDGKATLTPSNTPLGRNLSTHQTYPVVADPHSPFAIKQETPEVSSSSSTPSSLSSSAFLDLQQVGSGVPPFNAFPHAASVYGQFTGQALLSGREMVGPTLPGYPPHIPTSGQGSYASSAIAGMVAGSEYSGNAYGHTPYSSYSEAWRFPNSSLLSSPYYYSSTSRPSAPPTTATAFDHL
Assay [14] in a line: general cell-killing toxicity readout – plate reader, dry powder samples, cytotoxicity control for PAX8 inhibitor project, dose response (AID 743021). It is filed as functional, cell-based.

SMILES strings stand for the structures. Activity calls are given as the source filed them. Rule as the data show it, for most assays here: actives have a measured EC50 and inactives only a lower limit.

Drawing on ChEMBL document CHEMBL1201862, “PubChem BioAssay data set” (2004), this text covers EC50, IC50 and AC50 for two compounds.

Albumin, sequence (P02769 whole entry): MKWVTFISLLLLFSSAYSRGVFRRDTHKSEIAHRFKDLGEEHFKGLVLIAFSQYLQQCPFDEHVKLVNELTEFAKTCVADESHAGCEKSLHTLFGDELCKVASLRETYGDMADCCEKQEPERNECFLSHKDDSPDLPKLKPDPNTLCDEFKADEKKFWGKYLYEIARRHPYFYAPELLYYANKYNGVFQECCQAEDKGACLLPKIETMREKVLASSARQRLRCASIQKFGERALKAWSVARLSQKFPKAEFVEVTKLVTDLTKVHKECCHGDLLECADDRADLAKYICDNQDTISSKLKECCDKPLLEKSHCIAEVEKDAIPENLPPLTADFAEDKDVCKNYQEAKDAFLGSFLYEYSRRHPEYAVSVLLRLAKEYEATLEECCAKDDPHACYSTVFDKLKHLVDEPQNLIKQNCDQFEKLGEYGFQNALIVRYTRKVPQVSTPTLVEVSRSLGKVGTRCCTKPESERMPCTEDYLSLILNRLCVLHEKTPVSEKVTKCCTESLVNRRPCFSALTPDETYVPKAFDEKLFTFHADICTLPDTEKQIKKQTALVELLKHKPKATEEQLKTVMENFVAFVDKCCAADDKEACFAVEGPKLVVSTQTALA

Regarding `O=[N+]([O-])c1cc(Br)c(O)c(/C=N/Nc2nnnn2-c2cccc3ccccc23)c1`, the EC50 is > 150 µM (inconclusive) in assay [1]; 3.69 µM (active) in assay [2]; > 150 µM (not active) on Streptokinase A; > 38 µM (not active) in assay [3]; > 150 µM (not active) in the assay with Streptococcus. The IC50 on Aminopeptidase N is 6.79 µM (active); in assay [4], > 64 µM (inactive); in assay [5], 30.2 µM (active); at Albumin, > 94.1 µM (inactive). In [6], the AC50 was 15.6 µM (active).

As to `COc1ccc(/C=N/Nc2cc(C)nc3ccc(Br)cc23)cc1`, the EC50 is > 120 µM (not active) in assay [7]; 8.17 µM (active) in assay [8]; 7.61 µM (active) in assay [9]; 1.55 µM (active) in assay [10]; 8.92 µM (active) in assay [11]; > 260 µM (inactive) in assay [13]. Further, the IC50 in assay [12] was > 20 µM (inactive). The AC50 in the assay with INS1 is 5.79 µM (active); on Paired box protein Pax-8 it was 8.78 µM (active); in assay [14], 26.8 µM (active).
